Source: ChEMBL document CHEMBL1201862, “PubChem BioAssay data set” (2004)
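Results reflect a 48-hour exposure of cells in 96-well plates to compound at five concentrations. Abbreviation: GI50, concentration required for 50% inhibition of growth.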 The source made the active and inactive calls. Cut-off read from the data, not from the text of the source: active = GI50 up to about 1.1 µM and inactive = higher.

Columns and labels:
Experiment in all cases: inhibition of tumour cell growth, NCI panel, 48 h
BT-549 = tested on: BT-549
CAKI-1 = tested on: CAKI-1
DU-145 = tested on: DU-145
HCT-15 = tested on: HCT-15
HL-60 = tested on: HL-60
HOP-62 = tested on: HOP-62
MCF7 = tested on: MCF7
Malme-3M = tested on: Malme-3M
NCI-H460 = tested on: NCI-H460
OVCAR-4 = tested on: OVCAR-4
SF-268 = tested on: SF-268
SK-MEL-28 = tested on: SK-MEL-28
SK-MEL-2 = tested on: SK-MEL-2
SN12C = tested on: SN12C
TK-10 = tested on: TK-10
U-251 = tested on: U-251
UO-31 = tested on: UO-31
SF-539 = tested on: SF-539

Row | SMILES | GI50 (BT-549) | GI50 (CAKI-1) | GI50 (DU-145) | GI50 (HCT-15) [µM] | GI50 (HL-60) | GI50 (HOP-62) | GI50 (MCF7) | GI50 (Malme-3M) | GI50 (NCI-H460) | GI50 (OVCAR-4) | GI50 (SF-268) | GI50 (SK-MEL-28) | GI50 (SK-MEL-2) | GI50 (SN12C) | GI50 (TK-10) | GI50 (U-251) | GI50 (UO-31) | GI50 (SF-539)
1 | CCC1c2[nH]c3ccccc3c2C[C@H]2C(=O)NC(COC(C)(C)C)C(=O)N12 (some centres undefined) | 34 µM (inactive) | 44.9 µM (inactive) | 67.6 µM (inactive) | 48 | 21.3 µM (inactive) | 76.6 µM (inactive) | 41.8 µM (inactive) | 21.7 µM (inactive) | 31.2 µM (inactive) | 39.1 µM (inactive) | 67.3 µM (inactive) | 86.3 µM (inactive) | 32.8 µM (inactive) | 45.5 µM (inactive) | 27.1 µM (inactive) | 40.7 µM (inactive) | 38.2 µM (inactive) | –
2 | CCCCOc1ccc(NC(=N)Nc2ccc(Cl)cc2)cc1 | 9.57 µM (inactive) | – | 0.462 µM (active) | 9.35 | 6.49 µM (inactive) | 0.235 µM (active) | 0.135 µM (active) | 3.47 µM (inactive) | 3.7 µM (inactive) | 1.84 µM (inactive) | 0.92 µM (active) | 13.2 µM (inactive) | 2.64 µM (inactive) | 0.791 µM (active) | 5.16 µM (inactive) | 9.68 µM (inactive) | 2.43 µM (inactive) | 0.558 µM (active)
3 | CN(C)c1ccc(/C=N/c2ccc(-c3nc4ccccc4o3)cc2)cc1 | 32.4 µM (inactive) | – | 52.5 µM (inactive) | 31.8 | 20.8 µM (inactive) | 35 µM (inactive) | 40.9 µM (inactive) | > 100 µM (inactive) | 28.8 µM (inactive) | 33.5 µM (inactive) | 79.1 µM (inactive) | 67.8 µM (inactive) | 30.6 µM (inactive) | 60.8 µM (inactive) | 36.5 µM (inactive) | 31.7 µM (inactive) | 48.8 µM (inactive) | 40.8 µM (inactive)
4 | Fc1ccc2nc3n(c2c1)C(c1c(Cl)cccc1Cl)SC3 (centres undefined) | > 100 µM (inactive) | > 100 µM (inactive) | > 100 µM (inactive) | > 100 | – | > 100 µM (inactive) | > 100 µM (inactive) | > 100 µM (inactive) | > 100 µM (inactive) | > 100 µM (inactive) | > 100 µM (inactive) | > 100 µM (inactive) | > 100 µM (inactive) | > 100 µM (inactive) | > 100 µM (inactive) | > 100 µM (inactive) | > 100 µM (inactive) | > 100 µM (inactive)
5 | COc1ccc2c(c1)C(=O)c1ccccc1C2 | 64.1 µM (inactive) | 79.6 µM (inactive) | 17.1 µM (inactive) | 60.7 | 16.3 µM (inactive) | 50.6 µM (inactive) | 64 µM (inactive) | – | 61.8 µM (inactive) | 42.7 µM (inactive) | 70.5 µM (inactive) | > 100 µM (inactive) | 48.3 µM (inactive) | > 100 µM (inactive) | 48.1 µM (inactive) | 45.2 µM (inactive) | > 100 µM (inactive) | 61.1 µM (inactive)
6 | O=C(OCc1ccccc1)N1CCN(C(=O)OCc2ccccc2)CCN(C(=O)OCc2ccccc2)CCN(C(=O)OCc2ccccc2)CCN(C(=O)OCc2ccccc2)CC1 | > 100 µM (inactive) | > 100 µM (inactive) | > 100 µM (inactive) | 46.8 | – | 65 µM (inactive) | > 100 µM (inactive) | 24.4 µM (inactive) | > 100 µM (inactive) | 57.4 µM (inactive) | – | > 100 µM (inactive) | > 100 µM (inactive) | > 100 µM (inactive) | 46.6 µM (inactive) | 76.7 µM (inactive) | 22.8 µM (inactive) | 28.3 µM (inactive)
7 | Cc1ccc(S(=O)(=O)NC(=O)NCC(N)=O)cc1 | > 100 µM (inactive) | – | > 100 µM (inactive) | > 100 | > 100 µM (inactive) | > 100 µM (inactive) | > 100 µM (inactive) | > 100 µM (inactive) | > 100 µM (inactive) | > 100 µM (inactive) | > 100 µM (inactive) | > 100 µM (inactive) | > 100 µM (inactive) | > 100 µM (inactive) | > 100 µM (inactive) | > 100 µM (inactive) | > 100 µM (inactive) | > 100 µM (inactive)
8 | CC(/C=C/C(O)=C1/C(=O)CNC1=O)=C\[C@@H](C)[C@H]1O[C@@]2(C)O[C@H](C(=O)[C@@H]3O[C@@]32C)[C@@H]1C | 15.8 µM (inactive) | 19.4 µM (inactive) | 18.9 µM (inactive) | 18.4 | 11.7 µM (inactive) | 22.2 µM (inactive) | 19.7 µM (inactive) | 18.1 µM (inactive) | – | – | 21.1 µM (inactive) | 17.6 µM (inactive) | 22.7 µM (inactive) | 20.3 µM (inactive) | 19.2 µM (inactive) | 19.5 µM (inactive) | 13.8 µM (inactive) | 18.7 µM (inactive)
9 | COc1cccc2c(NNc3ccccc3)c3ccc([N+](=O)[O-])cc3nc12 | 12.1 µM (inactive) | 12 µM (inactive) | 73.6 µM (inactive) | 33 | – | 60.4 µM (inactive) | 26.4 µM (inactive) | 54.3 µM (inactive) | 32.3 µM (inactive) | 42 µM (inactive) | 19.6 µM (inactive) | 43.2 µM (inactive) | 25.8 µM (inactive) | 47.1 µM (inactive) | 21.3 µM (inactive) | 21.2 µM (inactive) | 8.67 µM (inactive) | 36.4 µM (inactive)
10 | CO/N=C(\C)c1ccc(Nc2nc3ccccc3c3occc23)cc1 | 16.8 µM (inactive) | 16.4 µM (inactive) | 15.5 µM (inactive) | 15.1 | 26.5 µM (inactive) | 16 µM (inactive) | 13.8 µM (inactive) | 14.6 µM (inactive) | 15.6 µM (inactive) | – | 16.4 µM (inactive) | – | 18 µM (inactive) | 15.2 µM (inactive) | 12.4 µM (inactive) | 16.9 µM (inactive) | 18.9 µM (inactive) | 14.2 µM (inactive)
11 | CC(C)NC(=O)OCc1c2c(n(C)c1COC(=O)NC(C)C)-c1cc(Cl)c(Cl)cc1CC2 | 68.2 µM (inactive) | – | 70.8 µM (inactive) | 23.8 | – | 54.5 µM (inactive) | 15.8 µM (inactive) | 49.3 µM (inactive) | 34.4 µM (inactive) | 64.6 µM (inactive) | 69.2 µM (inactive) | 64.1 µM (inactive) | 25.2 µM (inactive) | 43 µM (inactive) | 25.2 µM (inactive) | 18.2 µM (inactive) | 27 µM (inactive) | 50.2 µM (inactive)
12 | O=C(c1cccs1)N1CCCN(C(=O)c2cccs2)C1=S | > 100 µM (inactive) | > 100 µM (inactive) | > 100 µM (inactive) | > 100 | > 100 µM (inactive) | 26.2 µM (inactive) | > 100 µM (inactive) | > 100 µM (inactive) | – | – | > 100 µM (inactive) | > 100 µM (inactive) | 84.7 µM (inactive) | > 100 µM (inactive) | > 100 µM (inactive) | > 100 µM (inactive) | > 100 µM (inactive) | > 100 µM (inactive)
